{"source": "paper PMC11310079", "about": "“Commensal production of a broad-spectrum and short-lived antimicrobial peptide polyene eliminates nasal Staphylococcus aureus” (Nature Microbiology, 2023)", "key": {"S. aureus USA300LAC": {"system": "S. aureus USA300LAC", "assay": "Determination of the IC (miniaturized agar diffusion assay)", "assay_type": "cell-based, Staphylococcus aureus", "conditions": "agar diffusion on inoculated TSA, 35 µl in 4-mm wells, 24 h 37 °C dark; IC from inhibited agar volume at lowest active amount", "method": "(§1) Instead, a miniaturized assay was developed. Molten TSA, kept below 42 °C, was inoculated with different test strains at an OD600 of 0.00125. Then, 17.5 ml was poured into Petri dishes, resulting in agar layers of ~3.16 mm thickness. After solidification, a cork borer was used to punch wells of 4-mm diameter into the agar. Thirty-five microlitres of purified epifadin in DMSO–PA (2.4 µg, 1.2 µg, 0.6 µg, 0.3 µg, 0.15 µg and 0.075 µg) was pipetted into the wells, and agar plates were incubated for 24 h at 37 °C in the dark. Diameters of the zones of inhibition were measured and the volume containing the inhibitory epifadin concentration was calculated, using the following formula for cylinder volume: Vc=πxr^2xhVc=cylindervolumeVi=πrz2xha−(πrw2xha)Vi=inhibitedvolumerz2=radius(diameter/2)zoneofinhibitionrw2=radius(diameter/2)ofwellha=heightofagar\n(§2) The volume of agar showing inhibition of the test strain was then correlated with the included amount of epifadin, and the epifadin concentration necessary to inhibit test strain growth in a 1 ml volume was calculated to yield IC values. If, for example, 2.4 µg of epifadin lead to an inhibited volume of 480 µl, to inhibit a volume of 1 ml, 5 µg epifadin is needed, which corresponds to an IC of 5 μg ml^−1. These calculations were conducted for the lowest amount of epifadin that led to a zone of inhibition to minimize the necessary epifadin amounts and the calculation error due to the gradient within the inhibition zone. As a control, the same assay was used to determine the IC for vancomycin, daptomycin and lugdunin under these conditions."}, "S. aureus USA300 JE2": {"system": "S. aureus USA300 JE2", "assay": "Determination of the IC (miniaturized agar diffusion assay)", "assay_type": "cell-based, Staphylococcus aureus", "conditions": "agar diffusion on inoculated TSA, 24 h 37 °C dark; IC from inhibited agar volume", "method": "as §1, §2"}, "S. aureus USA300 LAC": {"system": "S. aureus USA300 LAC", "assay": "Stability analysis of epifadin (bioactivity by agar diffusion after incubation)", "assay_type": "physicochemical, Staphylococcus aureus", "conditions": "37 °C, pH 7, light, r4-r10 = 0-6 h", "method": "Fig. 2 High instability of epifadin under in vivo-like conditions. S. epidermidis IVK83 culture supernatants containing epifadin were precipitated with HCl, freeze-dried and extracted with DMSO. This extract was diluted in TSB, incubated for the indicated time periods with constant shaking under the respective conditions and subsequently tested for activity towards S. aureus USA300 LAC. a, Stability of epifadin compared with other antibacterial agents under standard laboratory conditions (37 °C, pH 7, laboratory light exposure). b, In vivo-like conditions with laboratory light exposure at pH 7 (nasal condition) or pH 5.5 (skin condition) and reduced temperatures; incubation of epifadin under exclusion from light enabled further purification and activity determination. Conditions at pH 7, 37 °C and 0 h were used as reference for 100% stability. Data shown represent the mean ± s.d. of three independent experiments. Source data\nThe effect of different incubation conditions on the bioactivity of epifadin was analysed by agar diffusion assays on lawns of the sensitive indicator strain S. aureus USA300 LAC. To this end, liquid TSA was inoculated with an overnight culture of USA300 at an OD600 of 0.00125. After solidification of the agar, a cork borer was used to punch wells into the agar with 5 mm diameter. TSB media with 50 mM sodium citrate (pH 5 and 6) or 50 mM tris(hydroxymethyl)aminomethane (pH 8 and 9) were prepared. Epifadin-containing precipitate was dissolved in DMSO (12 mg ml^−1), and insoluble particles were removed by centrifugation. The supernatant was added to the prepared TSB media at a final concentration of 750 µg precipitate per millilitre (37.5 µg in 50 µl). Media were incubated for 6 h at 21 °C, 30 °C or 37 °C with or without laboratory light exposure and constant shaking at 500 rpm in a thermomixer (Eppendorf). As controls, 70 µg ml^−1 (3.5 µg in 50 µl) lugdunin, 24 µg ml^−1 (1.2 µg in 50 µl) gallidermin and 100 µg ml^−1 (5 µg in 50 µl) nisin were used. At different timepoints, 50 µl of each sample was pipetted into the wells of the agar plates. After incubation at 37 °C overnight, zones of inhibition were analysed with ImageJ software (version 1.8.0_112)."}}}
{"compound": "CN[C@H](CC(C)C)C(=O)N[C@H]1C(=O)N[C@@H](CC(N)=O)C(=O)N[C@H]2C(=O)N[C@H]3C(=O)N[C@H](C(=O)N[C@H](C(=O)O)c4cc(O)cc(O)c4-c4cc3ccc4O)[C@H](O)c3ccc(c(Cl)c3)Oc3cc2cc(c3O[C@@H]2O[C@H](CO)[C@@H](O)[C@H](O)[C@H]2O[C@H]2C[C@](C)(N)[C@H](O)[C@H](C)O2)Oc2ccc(cc2Cl)[C@H]1O", "note": "[Vancomycin]", "values": [{"measurement": "IC*", "setting": "S. aureus USA300LAC", "value": 6.0, "unit": "µg/mL"}, {"measurement": "IC*", "setting": "S. aureus USA300 JE2", "value": 3.7, "unit": "µg/mL"}]}
{"compound": "Gallidermin", "values": [{"measurement": "stability (remaining antimicrobial activity, 0 h = 100%)", "setting": "S. aureus USA300 LAC; gallidermin 24 µg/ml in TSB, experiment 1 of 3, after 1 h incubation", "value": 98.31, "unit": "%"}, {"measurement": "stability (remaining antimicrobial activity, 0 h = 100%)", "setting": "S. aureus USA300 LAC; gallidermin 24 µg/ml in TSB, experiment 1 of 3, after 2 h incubation", "value": 98.34, "unit": "%"}, {"measurement": "stability (remaining antimicrobial activity, 0 h = 100%)", "setting": "S. aureus USA300 LAC; gallidermin 24 µg/ml in TSB, experiment 1 of 3, after 3 h incubation", "value": 97.66, "unit": "%"}, {"measurement": "stability (remaining antimicrobial activity, 0 h = 100%)", "setting": "S. aureus USA300 LAC; gallidermin 24 µg/ml in TSB, experiment 1 of 3, after 4 h incubation", "value": 104.98, "unit": "%"}, {"measurement": "stability (remaining antimicrobial activity, 0 h = 100%)", "setting": "S. aureus USA300 LAC; gallidermin 24 µg/ml in TSB, experiment 1 of 3, after 5 h incubation", "value": 100.66, "unit": "%"}, {"measurement": "stability (remaining antimicrobial activity, 0 h = 100%)", "setting": "S. aureus USA300 LAC; gallidermin 24 µg/ml in TSB, experiment 1 of 3, after 6 h incubation", "value": 98.44, "unit": "%"}, {"measurement": "stability (remaining antimicrobial activity, 0 h = 100%)", "setting": "S. aureus USA300 LAC; gallidermin 24 µg/ml in TSB, experiment 2 of 3, after 1 h incubation", "value": 97.85, "unit": "%"}, {"measurement": "stability (remaining antimicrobial activity, 0 h = 100%)", "setting": "S. aureus USA300 LAC; gallidermin 24 µg/ml in TSB, experiment 2 of 3, after 2 h incubation", "value": 106.35, "unit": "%"}, {"measurement": "stability (remaining antimicrobial activity, 0 h = 100%)", "setting": "S. aureus USA300 LAC; gallidermin 24 µg/ml in TSB, experiment 2 of 3, after 3 h incubation", "value": 110.68, "unit": "%"}, {"measurement": "stability (remaining antimicrobial activity, 0 h = 100%)", "setting": "S. aureus USA300 LAC; gallidermin 24 µg/ml in TSB, experiment 2 of 3, after 4 h incubation", "value": 102.27, "unit": "%"}, {"measurement": "stability (remaining antimicrobial activity, 0 h = 100%)", "setting": "S. aureus USA300 LAC; gallidermin 24 µg/ml in TSB, experiment 2 of 3, after 5 h incubation", "value": 103.29, "unit": "%"}, {"measurement": "stability (remaining antimicrobial activity, 0 h = 100%)", "setting": "S. aureus USA300 LAC; gallidermin 24 µg/ml in TSB, experiment 2 of 3, after 6 h incubation", "value": 108.21, "unit": "%"}, {"measurement": "stability (remaining antimicrobial activity, 0 h = 100%)", "setting": "S. aureus USA300 LAC; gallidermin 24 µg/ml in TSB, experiment 3 of 3, after 1 h incubation", "value": 100.01, "unit": "%"}, {"measurement": "stability (remaining antimicrobial activity, 0 h = 100%)", "setting": "S. aureus USA300 LAC; gallidermin 24 µg/ml in TSB, experiment 3 of 3, after 2 h incubation", "value": 96.91, "unit": "%"}, {"measurement": "stability (remaining antimicrobial activity, 0 h = 100%)", "setting": "S. aureus USA300 LAC; gallidermin 24 µg/ml in TSB, experiment 3 of 3, after 3 h incubation", "value": 95.85, "unit": "%"}, {"measurement": "stability (remaining antimicrobial activity, 0 h = 100%)", "setting": "S. aureus USA300 LAC; gallidermin 24 µg/ml in TSB, experiment 3 of 3, after 4 h incubation", "value": 100.24, "unit": "%"}, {"measurement": "stability (remaining antimicrobial activity, 0 h = 100%)", "setting": "S. aureus USA300 LAC; gallidermin 24 µg/ml in TSB, experiment 3 of 3, after 5 h incubation", "value": 103.69, "unit": "%"}, {"measurement": "stability (remaining antimicrobial activity, 0 h = 100%)", "setting": "S. aureus USA300 LAC; gallidermin 24 µg/ml in TSB, experiment 3 of 3, after 6 h incubation", "value": 91.59, "unit": "%"}]}
{"compound": "Nisin", "values": [{"measurement": "stability (remaining antimicrobial activity, 0 h = 100%)", "setting": "S. aureus USA300 LAC; nisin 100 µg/ml in TSB, experiment 1 of 3, after 1 h incubation", "value": 97.92, "unit": "%"}, {"measurement": "stability (remaining antimicrobial activity, 0 h = 100%)", "setting": "S. aureus USA300 LAC; nisin 100 µg/ml in TSB, experiment 1 of 3, after 2 h incubation", "value": 95.64, "unit": "%"}, {"measurement": "stability (remaining antimicrobial activity, 0 h = 100%)", "setting": "S. aureus USA300 LAC; nisin 100 µg/ml in TSB, experiment 1 of 3, after 3 h incubation", "value": 93.46, "unit": "%"}, {"measurement": "stability (remaining antimicrobial activity, 0 h = 100%)", "setting": "S. aureus USA300 LAC; nisin 100 µg/ml in TSB, experiment 1 of 3, after 4 h incubation", "value": 95.48, "unit": "%"}, {"measurement": "stability (remaining antimicrobial activity, 0 h = 100%)", "setting": "S. aureus USA300 LAC; nisin 100 µg/ml in TSB, experiment 1 of 3, after 5 h incubation", "value": 97.51, "unit": "%"}, {"measurement": "stability (remaining antimicrobial activity, 0 h = 100%)", "setting": "S. aureus USA300 LAC; nisin 100 µg/ml in TSB, experiment 1 of 3, after 6 h incubation", "value": 85.14, "unit": "%"}, {"measurement": "stability (remaining antimicrobial activity, 0 h = 100%)", "setting": "S. aureus USA300 LAC; nisin 100 µg/ml in TSB, experiment 2 of 3, after 1 h incubation", "value": 104.00, "unit": "%"}, {"measurement": "stability (remaining antimicrobial activity, 0 h = 100%)", "setting": "S. aureus USA300 LAC; nisin 100 µg/ml in TSB, experiment 2 of 3, after 2 h incubation", "value": 100.36, "unit": "%"}, {"measurement": "stability (remaining antimicrobial activity, 0 h = 100%)", "setting": "S. aureus USA300 LAC; nisin 100 µg/ml in TSB, experiment 2 of 3, after 3 h incubation", "value": 102.17, "unit": "%"}, {"measurement": "stability (remaining antimicrobial activity, 0 h = 100%)", "setting": "S. aureus USA300 LAC; nisin 100 µg/ml in TSB, experiment 2 of 3, after 4 h incubation", "value": 101.46, "unit": "%"}, {"measurement": "stability (remaining antimicrobial activity, 0 h = 100%)", "setting": "S. aureus USA300 LAC; nisin 100 µg/ml in TSB, experiment 2 of 3, after 5 h incubation", "value": 105.85, "unit": "%"}, {"measurement": "stability (remaining antimicrobial activity, 0 h = 100%)", "setting": "S. aureus USA300 LAC; nisin 100 µg/ml in TSB, experiment 2 of 3, after 6 h incubation", "value": 97.13, "unit": "%"}, {"measurement": "stability (remaining antimicrobial activity, 0 h = 100%)", "setting": "S. aureus USA300 LAC; nisin 100 µg/ml in TSB, experiment 3 of 3, after 1 h incubation", "value": 107.69, "unit": "%"}, {"measurement": "stability (remaining antimicrobial activity, 0 h = 100%)", "setting": "S. aureus USA300 LAC; nisin 100 µg/ml in TSB, experiment 3 of 3, after 2 h incubation", "value": 105.39, "unit": "%"}, {"measurement": "stability (remaining antimicrobial activity, 0 h = 100%)", "setting": "S. aureus USA300 LAC; nisin 100 µg/ml in TSB, experiment 3 of 3, after 4 h incubation", "value": 113.09, "unit": "%"}, {"measurement": "stability (remaining antimicrobial activity, 0 h = 100%)", "setting": "S. aureus USA300 LAC; nisin 100 µg/ml in TSB, experiment 3 of 3, after 5 h incubation", "value": 97.70, "unit": "%"}, {"measurement": "stability (remaining antimicrobial activity, 0 h = 100%)", "setting": "S. aureus USA300 LAC; nisin 100 µg/ml in TSB, experiment 3 of 3, after 6 h incubation", "value": 77.36, "unit": "%"}]}
